What all share (format): in vivo
Data set [1] has as its system carrageenan-induced rat paw edema. Kind of data set: carrageenan-induced rat paw edema antiinflammatory assay (CPE). Particulars: for ED50: CPE, rat, antiinflammatory. From the text:
(The carrageenan-induced rat paw edema test is hereinafter referred to as CPE).
(In general: Carrageenan injected into the paw causes an acute inflammation.)

Data set [2] in a line: ulcerogenic activity test (GI). The settings on record: for TD50: in vivo. From the text:
(The ulcerogenic ativity test is hereafter referred to as GI).

The subject of data set [3] is 2-phenyl-1,4-benzoquinone-induced writhing. Put plainly: 2-phenyl-1,4-benzoquinone-induced writhing test in mice (PQW). The settings on record: for ED50: Mus musculus, PQW, mice, analgesic. From the text: (The phenylquinone-induced writhing test is hereinafter referred to as PQW).
For orientation: Writhing tests count abdominal constrictions after an irritant is injected.

Turning to `O=C1c2cc(CCCCO)ccc2OCc2ccsc21` [Compound 3, 4-(4,10-Dihydro-10-oxothieno[3,2-c][1]benzoxepin-8-yl)butanol], the ED50 – broadly, the dose that gives a 50% effect, or the effect in half of the subjects – is 8.6 mg/kg in data set [1] and 7.4 mg/kg in data set [3]. The “activity in the CPE test” value in data set [1] (result in words) was “exhibit activity”. The molecule further showed a TD50 in data set [2] of more than 400 mg/kg. Moreover, the “incidence of ulcers / ulcerogenic activity” value in data set [2] (result in words, test animals, very high dosage levels) is recorded as “very low incidence of ulcers”. Moreover, the “activity in the PQW test” value in data set [3] (result in words) is reported as “exhibit activity”.
`CC(C)OC(=O)Cc1ccc2c(c1)C(=O)c1sccc1CO2` [Compound 2, reference compound]: the figures for the ED50 in data set [1] and in data set [3] were 1.6 mg/kg and 13.7 mg/kg, respectively. In data set [2], this molecule returned a TD50 of 21.6 mg/kg.
`O=C(O)Cc1ccc2c(c1)C(=O)c1sccc1CO2` [Compound 1, reference compound]: the ED50 is 3.4 mg/kg in data set [1] and 4.5 mg/kg in data set [3]. Further, the TD50 in data set [2] was 33.7 mg/kg.
